Source: patent US20170305965A1, “Fab REGION-BINDING PEPTIDE” (KANEKA CORPORATION, priority 2014, published 2017)

Legend:
[1] = biological target: Fab region of IgG; details: cited from earlier work
[2] = system: IgG-Fab of anti-HER2 monoclonal antibody (Trastuzumab); experiment: Biacore 3000 surface plasmon resonance analysis of affinity of SpG variants for immobilized IgG-Fab; type: binding, human; details: for KA (affinity constant, KA=kon/koff) / koff / kon: Anti-HER2 antibody - Fab immobilized on CM5, peptide 0.1-0.8 μM, 25° C., pH 7.4, 1:1 binding model; for KA Vs. Wild: ratio of KA to that of GB2*-Wild.1d, Anti-HER2 antibody - Fab
Excerpt: A humanized monoclonal IgG product as a raw material was fragmented into a Fab fragment and a Fc fragment using papain, and only the Fab fragment was separated and purified. Hereinafter, a method for producing IgG-Fab derived from anti-HER2 monoclonal antibody (generic name: Trastuzumab) is described. In the present disclosure, when other IgG-Fab was used for evaluation, the fragment was basically prepared in a similar method.
Specifically, a humanized monoclonal IgG product (“HERCEPTIN” manufactured by CHUGAI PHARMACEUTICAL CO., LTD., in the case of anti-HER2 monoclonal antibody) was dissolved in a buffer for papain treatment (0.1 M AcOH—AcONa, 2 mM EDTA, 1 mM cysteine, pH 5.5), and agarose on which papain was immobilized (“Papain Agarose from papaya latex” manufactured by SIGMA) was added thereto. The mixture was incubated with stirring by a rotator at 37° C. for about 8 hours. The IgG-Fab was purified by recovering the IgG-Fab as a flow-through fraction in an affinity chromatography using KanCapA column (manufactured by GE Healthcare Bioscience) from the reaction mixture which contained both of a Fab fragment and a Fc fragment and which was separated from the agarose on which papain was immobilized. The obtained crude IgG-Fab solution was subjected to purification by gel filtration chromatography using Superdex 75 10/300 GL column to obtain IgG-Fab solution. In the chromatography, a standard buffer was used for equilibration and separation. Similarly to the above-described Example 1, AKTAprime plus system was used in the chromatography for protein purification.
The affinity of each of the SpG-β2* variant obtained in the above-described Example 1(2) for the IgG-Fab of anti-HER2 monoclonal antibody was evaluated using a biosensor Biacore 3000 (manufactured by GE Healthcare Bioscience) utilizing surface plasmon resonance. In the present Example, the IgG-Fab obtained in the above-described Example 2(1) was immobilized on a sensor tip, and each of the peptide was flown on the tip to detect the interaction between the two. The IgG-Fab was immobilized on a sensor tip CM5 by amine coupling method using N-hydroxysuccinimide (NHS) and N-ethyl-N′-(3-dimethylaminopropyl)carbodiimide hydrochloride (EDC), and ethanolamine was used for blocking. All of the sensor tip and reagents for immobilization was manufactured by GE Healthcare Bioscience. The IgG-Fab solution was diluted to about 10 times using a buffer for immobilization (10 mM AcOH—AcONa, pH 4.5), and the IgG-Fab was immobilized on the sensor tip in accordance with the protocol attached to the Biacore 3000. In addition, a reference cell as negative control was also prepared by activating another flow cell on the tip with EDC/NHS and then immobilizing human serum albumin (manufactured by Wako Pure Chemical Industries, Ltd.). Peptide solutions of each of the SpG-β2* variant having concentrations of […] were prepared using a running buffer (20 mM NaH2PO4—Na2HPO4, 150 mM NaCl, 0.005% P-20, pH 7.4). The peptide solution was added to the sensor tip in a flow rate of 10 μL/min for 4 minutes. Bonding response curves at the time of addition (association phase, for 4 minutes) and after the addition (dissociation phase, for 4 minutes) were sequentially obtained at a measurement temperature of 25° C. After each measurement, the added peptide remaining on the sensor tip was removed by flowing the running buffer for 5 minutes or more; and about 10 mM NaOH was added for wash between the measurements if required.
However, the concentration of a protein solution was adjusted to 0.8 μM, bonding response curves at the time of adding the solution (association phase, for 1 minute) and after the addition (dissociation phase, for 2 minutes) were obtained, and a fitting analysis was carried out using one concentration of the solution.

In the case of “GB2-Wild.1d: wild β2 domain of Protein G, SEQ ID NO: 2 (TTYKLVINGKTLKGETTTKAVDAETAEKAFKQYANDNGVDGVWTYDDATKTFTVTE; Streptococcus sp. GX7809)”, the Kd ([1]; described in Table 1 of Patent Document 2, read-out: dissociation constant) is given as 2.57 µM and the “association constant (inverse number of the dissociation constant of Patent Document 2)” value ([1]; inverse of the dissociation constant in Table 1 of Patent Document 2) is given as 400000 M⁻¹.
With “GB2*-E15W.1d: SpG-β2* one residue variant with E15W, amino acid sequence SEQ ID NO: 23 (TTYKLVINGKTLKGWTTTKAVDAETAERAFRQYATDNGVEGMWTYDPATKTFTVTE; SpG Mutant)” the “KA (affinity constant, KA=kon/koff)” value [2] was 1.08e+07 M⁻¹, the koff [2] was 0.011 s⁻¹ and the kon [2] was 119000 s/M. For the same substance, the “KA Vs. Wild” value [2] was 4.8.
For “GB2*-Wild.1d: SpG β2 domain variant having excellent thermal stability, SEQ ID NO: 3; comparative example before introducing the mutation (TTYKLVINGKTLKGETTTKAVDAETAERAFRQYATDNGVEGMWTYDPATKTFTVTE; SpG Mutant) [reference compound]”, the “KA (affinity constant, KA=kon/koff)” value [2] was 2.3e+06 M⁻¹, the koff [2] was 0.038 s⁻¹ and the kon [2] was 88000 s/M. The “difference between association constant of the Patent Document 2 variant and association constant shown in Table 2” value ([2]; GB2*-Wild.1d (Table 2) versus variant of Patent Document 2) was “about 1.4 times”.
With “GB2*-T02R.1d: SpG-β2* one residue variant with T02R, amino acid sequence SEQ ID NO: 19 (TRYKLVINGKTLKGETTTKAVDAETAERAFRQYATDNGVEGMWTYDPATKTFTVTE; SpG Mutant)” the “KA (affinity constant, KA=kon/koff)” value [2] was 9.8e+06 M⁻¹, the koff [2] was 0.01 s⁻¹ and the kon [2] was 98000 s/M. The “KA Vs. Wild” value [2] was 4.3.
For “GB2*-T02R/E15Y.1d: two residues variant of SpG-β2* with T02R and E15Y, SEQ ID NO: 27 (TRYKLVINGKTLKGYTTTKAVDAETAERAFRQYATDNGVEGMWTYDPATKTFTVTE; SpG Mutant)”, the “binding response (bonding response curve, FIG. 3)” value ([2]; protein solution 0.8 μM, raw bonding response curve compared under the same concentration) was “higher than those of GB2*-Wild.1d and GB2*-T02R.1d”.
For “GB2-E15W.1d: E15W mutation introduced into wild SpG-β2 domain, SEQ ID NO: 25 (TTYKLVINGKTLKGWTTTKAVDAETAEKAFKQYANDNGVDGVWTYDDATKTFTVTE; SpG Mutant)”, the “association constant KA” value ([2]; fitting analysis using one concentration, 0.8 μM, association phase 1 minute, dissociation phase 2 minutes) was 1.6e+06 M⁻¹.
With “GB2*-E15Y.1d: SpG-β2* one residue variant with E15Y, amino acid sequence SEQ ID NO: 21 (TTYKLVINGKTLKGYTTTKAVDAETAERAFRQYATDNGVEGMWTYDPATKTFTVTE; SpG Mutant)” the “KA (affinity constant, KA=kon/koff)” value [2] was 9.3e+06 M⁻¹, the koff [2] was 0.01 s⁻¹ and the kon [2] was 92000 s/M. For the same substance, the “KA Vs. Wild” value [2] was 4.0.
